In patent US20040086553A1, “Foods and beverages for whitening and orally administered whitening agents” (The Nisshin OilliO, Ltd., priority 2000, published 2004):
Like-named read-outs stand apart in the source and are kept apart here.

Assays:
B-16 melanoma cells = test: Evaluation of melanin production-inhibitory function (degree of whiteness of cultured cells); type: cell-based; on Evaluation of Melanin Production-Inhibition (degree of whiteness of cells): key: ++: The degree of whiteness is higher than that observed for the positive control; +: The degree of whiteness is almost identical to that of the positive control; ±: The degree of whiteness is not higher than that observed for the positive control, but higher than that observed for control; −: The degree of whiteness is almost identical to that observed for the control
Description: The melanin production-inhibitory function of the 5-membered ring-containing triterpenes incorporated into the foods or beverages and orally administered whitening agents of the present invention can be determined by a test method, which makes use of cultured melanocytes. The term “melanocyte(s)” used herein means cells having an ability of producing melanin and when cultivating these cells in the usual manner, the cells are blackened due to the accumulation of melanin pigment thus produced. Contrary to this, if a substance having such a melanin production-inhibitory function is incorporated into this cultivation system, the melanin production is suppressed and the skin is relatively whitened. The melanin production-inhibitory function can likewise be evaluated on the basis of this degree of relative whitening.
A culture medium (2 mL/well) was dispensed to a 6-well plate, a predetermined amount of B-16 melanoma cells was inoculated into the culture medium in each well and the cells were cultured at 37° C. and 5% CO2 by allowing the culture medium to stand. On the next day, a solution of test sample (each 5-membered ring-containing triterpene to be evaluated) having a predetermined concentration was added to and mixed with the culture medium and the cultivation was continued. On the 5th day from the initiation of the cultivation, the culture medium was exchanged and the test sample solution was again added to each well. On the next day, the culture medium was removed from each well to thus recover the cells, followed by washing the cells with PBS (phosphate-buffered physiological saline) and evaluation of the desired function based on the degree of whiteness of the cells. In this connection, the melanin production-inhibitory effect was evaluated by comparing the resulting degree of whiteness with that observed when 450 ppm of vitamin C-magnesium phosphate having a known effect was added instead of the test sample solution (positive control) and that observed when any test sample was not added (control) according to the following criteria.
The evaluation criteria for the degree of whiteness of cells are as follows: […]

[1] = tested on: deposition of melanin pigment on the skin induced by the UV light irradiation; test: Animal test for the confirmation of whitening effect (UV-induced skin pigmentation, test feed); type: in vivo, Brown guinea pigs; conditions: free ingestion, 4 weeks; for Evaluation Results CI: number of 7 animals ranked Conspicuous Imp.; for Evaluation Results MI: number of 7 animals ranked Medium Imp.; for Evaluation Results NC: number of 7 animals ranked No Change; for Evaluation Results SI: number of 7 animals ranked Slight Imp.
Description: More specifically, the whitening effect can be evaluated by removing a half of the hair on the back of each brown guinea pig, keeping these animals over 2 weeks while irradiating the hair-removed area with a UV lamp, dividing these guinea pigs into groups in such a manner that there is not any difference in the degree of the melanin pigmentation induced by the UN light irradiation, allowing the animals in each group to freely take a test food comprising a feed having a low vitamin C content to which a variety of triterpenes have been added and keeping these animals over additional 4 weeks to evaluate the degree of skin pigmentation while comparing the same with those observed for a control group and for a positive control group.
Brown guinea pigs (5-week-old male animals) were preliminarily kept for one week using a commercially available feed (CG-7 available from Nippon Kurea Company), a half of the hair on the back was removed and the hair-removed portion on the back was irradiated with light rays emitted from a UV lamp of 1.2 mW for 5 minutes on the 1st day and then with light rays emitted from a UV lamp of 1.0 mW for 5 minutes on the 2nd and 3rd days. Subsequently, these animals were kept over 2 weeks using a feed having a low vitamin C content (200.0 mg/kg feed), these guinea pigs were divided into 12 groups (comprising 7 animals each) in such a manner that there was not observed any difference in the degree of deposition of melanin pigment on the skin induced by the UV light irradiation between groups and then the animals were allowed to freely ingest each test feed comprising the feed having a low vitamin C content to which each triterpene had been added in an amount specified in the following Table 2. In this respect, however, the vitamin C-deficient feed per se was supplied to the control group and a vitamin C-supplemented feed was supplied to the positive control group. After 4 weeks from the supply of the test feed, the degree of the pigmentation of the skin was evaluated according to the following criteria.

[2] = Concentration 2 ppm, rank vs 450 ppm vitamin C-magnesium phosphate
[3] = Concentration 6 ppm, rank vs 450 ppm vitamin C-magnesium phosphate
[4] = Concentration 10 ppm, rank vs 450 ppm vitamin C-magnesium phosphate
[5] = compared with 450 ppm of vitamin C-magnesium phosphate

SMILES	Evaluation of Melanin Production-Inhibition (degree of whiteness of cells) (B-16 melanoma cells; [2])	Evaluation of Melanin Production-Inhibition (degree of whiteness of cells) (B-16 melanoma cells; [3])	Evaluation of Melanin Production-Inhibition (degree of whiteness of cells) (B-16 melanoma cells; [4])	Evaluation of Melanin Production-Inhibition (degree of whiteness of cells) (B-16 melanoma cells; Concentration 25 ppm, rank vs 450 ppm vitamin C-magnesium phosphate)	Evaluation of Melanin Production-Inhibition (degree of whiteness of cells) (B-16 melanoma cells; Concentration 50 ppm, rank vs 450 ppm vitamin C-magnesium phosphate)	melanin production-inhibitory function relative to that observed for the positive control/standard (B-16 melanoma cells; [5])	Evaluation Results CI ([1]; 500.0 mg/kg feed)	Evaluation Results MI ([1]; 500.0 mg/kg feed)	Evaluation Results NC ([1]; 500.0 mg/kg feed)	Evaluation Results SI ([1]; 500.0 mg/kg feed)	Evaluation of Melanin Production-Inhibition (degree of whiteness of cells) (B-16 melanoma cells)	concentration at which the function is identical to that observed for 450 ppm of the positive control (B-16 melanoma cells) [ppm]	melanin production-inhibitory function relative to that observed for the positive control/standard (B-16 melanoma cells)	Evaluation Results CI ([1]; 250.0 mg/kg feed)	Evaluation Results CI ([1]; 500.0 mg/kg feed, 500 mg/kg)	Evaluation Results MI ([1]; 250.0 mg/kg feed)	Evaluation Results NC ([1]; 250.0 mg/kg feed)	Evaluation Results SI ([1]; 250.0 mg/kg feed)	Evaluation Results SI ([1]; 500.0 mg/kg feed, 500 mg/kg)
CC1(C)CC[C@]2(CO)CC[C@]3(C)C(=CC[C@@H]4[C@@]5(C)CC[C@H](O)C(C)(C)[C@@H]5CC[C@]43C)[C@@H]2C1 [Erythrodiol]	±	±	±	+	+	about 20 times	2	2	1	2									
CC1(C)CC[C@]2(C(=O)O)CC[C@]3(C)C(=CC[C@@H]4[C@@]5(C)C[C@@H](O)[C@H](O)C(C)(C)[C@@H]5CC[C@]43C)[C@@H]2C1 [Purified maslinic acid 1, maslinic acid]								3	0		± and + and ++	4	about 110 times	2	4	3	0	2	0
C=C(C)[C@@H]1CC[C@]2(CO)CC[C@]3(C)[C@H](CC[C@@H]4[C@@]5(C)CC[C@H](O)C(C)(C)[C@@H]5CC[C@]43C)[C@@H]12 [Betulin]	−	±	±			about 40 times	1	3	1	2									
C[C@H]1[C@H](C)CC[C@]2(CO)CC[C@]3(C)C(=CC[C@@H]4[C@@]5(C)CC[C@H](O)C(C)(C)[C@@H]5CC[C@]43C)[C@H]12 [Uvaol]	−	−	+			about 40 times	1	4	1	1									
CC1(C)CC[C@]2(C(=O)O)CC[C@]3(C)C(=CC[C@@H]4[C@@]5(C)C[C@@H](O)[C@H](O)C(C)(C)[C@@H]5CC[C@]43C)[C@@H]2C1 [Purified maslinic acid 2, maslinic acid]								3	0		± and + and ++		about 110 times		3				1
